The NIST ThermoML archive (doi:10.1021/acs.jced.8b00466)

Test: wn = mass fraction of the nth substance listed
Details: 102 kPa, Liquid, Vibrating tube method

O=S(=O)(O)O [sulfuric acid] + O
mass density [kg/m3]
Details	273.15 K	283.15 K	293.15 K	298.15 K	303.15 K	313.15 K	323.15 K	333.15 K
w1 = 0.0966	1069.26	1066.08	1062.3	1060.23	1058.04	1053.6	1049.23	1043.53
w1 = 0.1151	1085.84	1082.07	1077.83	1075.55	1073.22	1068.89	1063.56	1058.71
w1 = 0.1365	1101.81	1097.5	1092.86	1090.39	1087.86	1082.6	1078.45	1072.64
w1 = 0.1536	1114.2	1109.5	1104.52	1101.94	1099.31	1093.86	1089.88	1084.63
w1 = 0.1728	1128.95	1123.83	1118.46	1115.73	1112.95	1107.33	1101.93	1095.88
w1 = 0.192	1145.91	1140.32	1134.59	1131.69	1128.88	1123.78	1118.59	1113.22
w1 = 0.2112	1159.41	1153.51	1147.52	1144.52	1141.48	1135.36	1129.37	1124.62
w1 = 0.2304	1177.19	1170.92	1164.6	1161.54	1158.39	1152.03	1148.5	1140.31
w1 = 0.2409	1185.57	1179.14	1172.69	1169.48	1166.27	1160.54	1154.05	1147.47
w1 = 0.2688	1209.44	1201.63	1194.85	1191.58	1188.22	1181.52	1174.82	1168.95
w1 = 0.288	1224.11	1217.14	1210.18	1206.76	1203.33	1196.6	1189.76	1183.88
w1 = 0.3072	1241.05	1233.47	1227.15	1223.62	1220.11	1213.75	1206.84	1200.67
w1 = 0.3265	1256.77	1249.51	1242.27	1238.85	1235.29	1228.03	1221.02	1214.92
w1 = 0.3457	1272.18	1264.81	1257.51	1253.89	1250.3	1243.38	1236.27	1230.89
w1 = 0.3648	1288.04	1280.59	1273.21	1269.57	1265.94	1258.73	1251.57	1244.44
w1 = 0.384	1305.68	1298.19	1290.73	1287.05	1283.37	1276.2	1268.99	1263.24
w1 = 0.4	1319.14	1311.55	1304.07	1300.36	1296.68	1289.37	1282.4	1275.2
